In publication PMC12030627, “Radioiodinated Bicyclic RGD Peptide Derivatives for Enhanced Tumor Accumulation” (Pharmaceuticals, 2025):
Where two headings read alike, the source gives them in different places. Starred links: 1 amine or outer side, 2 acyl side, 3 side chain; linkers in the order of their positions; H or OH if unused. Positions of bridges follow the written chain, without caps; N, C: chain ends. Non-standard residues stand in square brackets, D forms with d. Residues, ends and D or L forms follow the SMILES beside them. *: point of attachment. TBMB = c1c(C[*:1])cc(C[*:3])cc1C[*:2]; Palmitoyl = CCCCCCCCCCCCCCCC(=O)*; Benzoyl(3-I) = O=C(c1cccc(I)c1)*; 4Abz = Nc1ccc(C(=O)O)cc1

Assay: Biodistribution in U-87 MG tumor-bearing mice
Type: in vivo, BALB/c nu-nu mice
Conditions: male, BALB/c nu-nu, mouse, iv, 37 kBq, total radioactivity, U-87 MG-bearing mice, mean ± SD, n = 3; for tissue uptake at 1 h / tissue uptake dose at 1 h: 1 h after i.v. administration; for tissue uptake at 2 h / tissue uptake dose at 2 h: 2 h after i.v. administration; for tissue uptake at 6 h / tissue uptake dose at 6 h: 6 h after i.v. administration; for tissue uptake at 5 min / tissue uptake dose at 5 min: 5 min after i.v. administration; for tissue uptake at 0.5 h / tissue uptake dose at 0.5 h: 30 min after i.v. administration
Description: Animal experiments were performed in compliance with institutional animal care regulations, with the study protocol approved by the Experimental Animal Committee of Osaka Medical and Pharmaceutical University (Approval Numbers: 21–76, 22–76, and 23–76). Four-week-old male BALB/c nu-nu mice (Japan SLC, Shizuoka, Japan) were housed under a 12 h light/12 h dark cycle with free access to food and water. Tumor-bearing mice were established by suspending U-87 MG cells (2 × 10^6 cells/mouse) in PBS(–) and subcutaneously injecting 100 μL of the suspension into the right hind leg. For co-implantation models, A549 cells (2 × 10^6 cells/mouse) were suspended in PBS(–) and inoculated (100 μL) into the left hind leg of the same mice already inoculated with U-87 MG cells. Mice with tumor size approximately 10 mm in diameter, 4–5 weeks after inoculation, were used for biodistribution studies. Animals in which either tumor was not viable were excluded from the experiment.
U-87 MG-bearing mice (n = 42, 8–9 weeks old; 22–27 g) were randomly assigned into groups and administered [^125I]bcRGDpal or [^125I]bcRGDiba via intravenous injection (37 kBq in 100 μL of PBS containing 0.1% Tween 80 (PBS-T80)). At 5 min, 30 min, 1 h, 2 h, 6 h, 12 h, or 24 h post-injection, the mice were euthanized (n = 3 per time point). The heart, kidneys, liver, brain, pancreas, spleen, lung, small intestine, large intestine, muscle, skin, stomach, bone, and tumors were excised. Each organ’s weight and radioactivity were measured by a NaI well-type scintillation counter, and the % ID/g was calculated. To investigate the correlation between integrin expression and radioactivity accumulation, biodistribution at 2 h after administration of [^125I]bcRGDpal or [^125I]bcRGDiba was assessed in A549 and U-87 MG co-implantation mice (n = 5) using the same procedure. Additionally, co-implantation mice were injected with [^125I]bcRGDdimer (37 kBq/100 μL PBS-T80) and euthanized at 30 min, 2 h, and 4 h post-injection (n = 4 per time point), and % ID/g values were calculated as described above. The minimum sample size needed for the biodistribution study in U-87 MG-bearing mice was calculated using G Power software version 3.1.9.7. The calculation was based on a two-tailed test, with an effect size of 3.9, a significance level (α) of 0.05, and a statistical power (1 − β) of 0.8. […] The minimum required sample size for the biodistribution study in A549 and U-87 MG co-implantation mice was also calculated to be four animals per group (effect size = 2.5, α = 0.05, 1 − β = 0.8). To guarantee objective results, the experiment was carried out in a blinded manner. Specifically, drug administration and radioactivity measurements were conducted by different investigators to eliminate potential bias.

[1] = liver, read-out: Radioactivity in liver
[2] = lung, read-out: Radioactivity in lung
[3] = muscle, read-out: Radioactivity in muscle
[4] = pancreas, read-out: Radioactivity in pancreas
[5] = small intestine, read-out: Radioactivity in small intestine
[6] = spleen, read-out: Radioactivity in spleen
[7] = stomach, read-out: Radioactivity in stomach
[8] = thyroid, read-out: Radioactivity in thyroid

`CCCCCCCCCCCCCCCC(=O)N[C@@H](CCCCNC(=O)c1cccc(I)c1)C(=O)N1CCC[C@H]1C(=O)N1CCC[C@H]1C(=O)N1CCC[C@H]1C(=O)N[C@@H](CO)C(=O)NCC(=O)Nc1ccc(C(=O)N[C@@H](CO)C(=O)NCC(=O)N[C@H]2CSCc3cc4cc(c3)CSC[C@@H](NC(=O)[C@H](CCC(N)=O)NC(=O)[C@@H]3CCCN3C(=O)[C@H](Cc3c[nH]cn3)NC2=O)C(=O)N[C@@H](CCCNC(=N)N)C(=O)NCC(=O)N[C@@H](CC(=O)O)C(=O)N[C@@H](C(N)=O)CSC4)cc1` [[^125I]bcRGDpal] (Palmitoyl-K(Benzoyl(3-I))PPPSG[4Abz]SGCHPQ[dC]RGD[dC]-NH2; linker 10-14-18 via TBMB) gave a tissue uptake at 1 h [1] of 15.8 ± 0.9 %ID/g, a tissue uptake at 2 h [1] of 12.3 ± 0.3 %ID/g and a tissue uptake at 6 h [1] of 6 ± 0.2 %ID/g. It also gave a tissue uptake at 12 h (liver, 12 h after i.v. administration, read-out: Radioactivity in liver) of 1.9 ± 0.2 %ID/g, a tissue uptake at 24 h (liver, 24 h after i.v. administration, read-out: Radioactivity in liver) of 0.5 %ID/g and a tissue uptake at 5 min [2] of 11.8 ± 1.3 %ID/g. For the same compound, the tissue uptake at 0.5 h [2] was 11.2 ± 1 %ID/g, the tissue uptake at 1 h [2] was 9.6 ± 1.3 %ID/g and the tissue uptake at 2 h [2] was 7.8 ± 1 %ID/g. The tissue uptake at 6 h [2] was 4.4 ± 0.5 %ID/g, the tissue uptake at 12 h (lung, 12 h after i.v. administration, read-out: Radioactivity in lung) was 2.2 ± 0.3 %ID/g and the tissue uptake at 24 h (lung, 24 h after i.v. administration, read-out: Radioactivity in lung) was 0.6 ± 0.1 %ID/g. For the same compound, the tissue uptake at 5 min [3] was 1.4 ± 0.3 %ID/g, the tissue uptake at 0.5 h [3] was 1.6 ± 0.2 %ID/g and the tissue uptake at 1 h [3] was 1.4 ± 0.2 %ID/g. For the same compound, the tissue uptake at 2 h [3] was 1.1 ± 0.1 %ID/g, the tissue uptake at 6 h [3] was 0.6 ± 0.1 %ID/g and the tissue uptake at 12 h (muscle, 12 h after i.v. administration, read-out: Radioactivity in muscle) was 0.3 %ID/g. For the same compound, the tissue uptake at 24 h (muscle, 24 h after i.v. administration, read-out: Radioactivity in muscle) was 0.1 %ID/g, the tissue uptake at 5 min [4] was 2.8 ± 0.2 %ID/g and the tissue uptake at 0.5 h [4] was 2.5 ± 0.3 %ID/g. For the same compound, the tissue uptake at 1 h [4] was 1.9 ± 0.1 %ID/g, the tissue uptake at 2 h [4] was 1.6 ± 0.1 %ID/g and the tissue uptake at 6 h [4] was 1.2 ± 0.3 %ID/g. It also gave a tissue uptake at 12 h (pancreas, 12 h after i.v. administration, read-out: Radioactivity in pancreas) of 0.4 %ID/g, a tissue uptake at 24 h (pancreas, 24 h after i.v. administration, read-out: Radioactivity in pancreas) of 0.1 %ID/g and a tissue uptake at 5 min [5] of 2.3 ± 0.2 %ID/g. The tissue uptake at 0.5 h [5] was 4.5 ± 0.6 %ID/g, the tissue uptake at 1 h [5] was 7 ± 0.3 %ID/g and the tissue uptake at 2 h [5] was 9.3 ± 0.9 %ID/g. The tissue uptake at 6 h [5] was 4 ± 0.2 %ID/g, the tissue uptake at 12 h (small intestine, 12 h after i.v. administration, read-out: Radioactivity in small intestine) was 1.9 ± 0.5 %ID/g and the tissue uptake at 24 h (small intestine, 24 h after i.v. administration, read-out: Radioactivity in small intestine) was 0.3 %ID/g. It also gave a tissue uptake at 5 min [6] of 5.1 ± 0.4 %ID/g, a tissue uptake at 0.5 h [6] of 5.9 ± 0.8 %ID/g and a tissue uptake at 1 h [6] of 4.6 ± 0.6 %ID/g. It also gave a tissue uptake at 2 h [6] of 3.7 ± 0.1 %ID/g, a tissue uptake at 6 h [6] of 1.9 ± 0.2 %ID/g and a tissue uptake at 12 h (spleen, 12 h after i.v. administration, read-out: Radioactivity in spleen) of 0.8 ± 0.1 %ID/g. It also gave a tissue uptake at 24 h (spleen, 24 h after i.v. administration, read-out: Radioactivity in spleen) of 0.2 %ID/g, a tissue uptake dose at 5 min [7] of 0.5 ± 0.1 %ID and a tissue uptake dose at 0.5 h [7] of 0.6 ± 0.1 %ID. It also gave a tissue uptake dose at 1 h [7] of 0.7 ± 0.1 %ID, a tissue uptake dose at 2 h [7] of 0.8 ± 0.1 %ID and a tissue uptake dose at 6 h [7] of 0.4 %ID. For the same compound, the tissue uptake dose at 12 h (stomach, 12 h after i.v. administration) was 0.4 ± 0.3 %ID, the tissue uptake dose at 24 h (stomach, 24 h after i.v. administration) was 0.1 ± 0.1 %ID and the tissue uptake dose at 5 min [8] was 0.1 %ID. The tissue uptake dose at 0.5 h [8] was 0.1 ± 0.1 %ID, the tissue uptake dose at 1 h [8] was 0.1 ± 0.1 %ID and the tissue uptake dose at 2 h [8] was 0.1 ± 0.1 %ID. For the same compound, the tissue uptake dose at 6 h [8] was 0.1 %ID.
